In ChEMBL document CHEMBL3616470, “Biological evaluation of angular disubstituted naphthoimidazoles as anti-inflammatory agents” (Bioorg Med Chem Lett, 2015):
Active and inactive are the calls of the source. The calls are words filed in the database; no cut-off is given here.

Assays:
RAW264.7 [1] = assay: Antiinflammatory activity in mouse RAW264.7 cells assessed as inhibition of LPS-induced nitric oxide production treated 30 mins before LPS stimulation measured after 24 hrs by Griess assay; type: functional, cell-based
RAW264.7 [2] = assay: Inhibition of NFkappaB activation in mouse RAW264.7 cells assessed as reduction of LPS-induced p65 level in nucleus at 20 uM treated 30 mins before LPS stimulation measured after 24 hrs by Western blotting; type: cell-based
RAW264.7 [3] = assay: Cytotoxicity against mouse RAW264.7 cells assessed as cell viability at 10 to 20 uM after 24 hrs by MTT assay; type: cell-based; details: raw264.7, 24 h
RAW264.7 [4] = assay: Inhibition of NFkappaB activation in mouse RAW264.7 cells assessed as reduction of LPS-induced IkappaBalpha level in cytosol at 20 uM treated 30 mins before LPS stimulation measured after 24 hrs by Western blotting; type: cell-based
RAW264.7 [5] = assay: Antiinflammatory activity in mouse RAW264.7 cells assessed as inhibition of LPS-induced COX2 expression at 10 to 20 uM treated 30 mins before LPS stimulation measured after 24 hrs by Western blotting; type: functional, cell-based
RAW264.7 [6] = assay: Antiinflammatory activity in mouse RAW264.7 cells assessed as inhibition of LPS-induced NOS2 expression at 10 to 20 uM treated 30 mins before LPS stimulation measured after 24 hrs by Western blotting; type: functional, cell-based
RAW264.7 [7] = assay: Inhibition of NFkappaB activation in mouse RAW264.7 cells assessed as reduction of LPS-induced IkappaBbeta level in cytosol at 20 uM treated 30 mins before LPS stimulation measured after 24 hrs by Western blotting; type: cell-based
RAW264.7 [8] = assay: Antiinflammatory activity in mouse RAW264.7 cells assessed as inhibition of LPS-induced NOS2 expression at 20 uM treated 30 mins before LPS stimulation measured after 24 hrs by Western blotting; type: functional, cell-based
RAW264.7 [9] = assay: Antiinflammatory activity in mouse RAW264.7 cells assessed as inhibition of LPS-induced COX2 expression at 20 uM treated 30 mins before LPS stimulation measured after 24 hrs by Western blotting; type: functional, cell-based

In the case of `COc1cc(-n2c(-c3cccnc3)nc3cc(OC)c4ccccc4c32)c(OC)c2ccccc12`, the IC50 (RAW264.7 [1]) is reported as 8.4 µM, the inhibition (RAW264.7 [1]) is reported as “Dose-dependent effect” and the inhibition (RAW264.7 [2]) is reported as “Active”. The Activity (RAW264.7 [3]) was “Non-toxic”, the inhibition (RAW264.7 [4]) was “Active” and the inhibition (RAW264.7 [5]) was “Active”. The inhibition (RAW264.7 [6]) was “Active” and the inhibition (RAW264.7 [7]) was “Active”.

With `COc1cc(-n2c(-c3cccc(F)c3)nc3cc(OC)c4ccccc4c32)c(OC)c2ccccc12` the Activity (RAW264.7 [3]) was “Non-toxic”.

`COc1cc(-n2c(-c3ccsc3)nc3cc(OC)c4ccccc4c32)c(OC)c2ccccc12` was tested, and the Activity (RAW264.7 [3]) was “Non-toxic”.

`COc1cc2nc(-c3ccc([N+](=O)[O-])cc3)n(-c3ccccc3Br)c2c2ccccc12` was tested, and the Activity (RAW264.7 [3]) was “Non-toxic”.

In the case of `COc1cc(-n2c(-c3ccc([N+](=O)[O-])cc3)nc3cc(OC)c4ccccc4c32)c(OC)c2ccccc12`, the Activity (RAW264.7 [3]) is reported as “Non-toxic”.

In the case of `COc1cc(-n2c(-c3ccccc3)nc3cc(OC)c4ccccc4c32)c(OC)c2ccccc12`, the inhibition (RAW264.7 [8]) is reported as “inactive”, the Activity (RAW264.7 [3]) is reported as “Non-toxic” and the inhibition (RAW264.7 [9]) is reported as “inactive”.
